Assay results from patent US20240383874A1, “BENZENE RING DERIVATIVE, AND COMPOSITION AND PHARMACEUTICAL USE THEREOF” (Xizang Haisco Pharmaceutical Co., Ltd., priority 2020, published 2024).

Target: T1, AR splice variant 7 (AR-V7) (Homo sapiens, UniProt P10275)
T1 construct: host or cells: 22RV1 prostate cancer cells
T1 sequence (P10275 1-644 isoform P10275-3): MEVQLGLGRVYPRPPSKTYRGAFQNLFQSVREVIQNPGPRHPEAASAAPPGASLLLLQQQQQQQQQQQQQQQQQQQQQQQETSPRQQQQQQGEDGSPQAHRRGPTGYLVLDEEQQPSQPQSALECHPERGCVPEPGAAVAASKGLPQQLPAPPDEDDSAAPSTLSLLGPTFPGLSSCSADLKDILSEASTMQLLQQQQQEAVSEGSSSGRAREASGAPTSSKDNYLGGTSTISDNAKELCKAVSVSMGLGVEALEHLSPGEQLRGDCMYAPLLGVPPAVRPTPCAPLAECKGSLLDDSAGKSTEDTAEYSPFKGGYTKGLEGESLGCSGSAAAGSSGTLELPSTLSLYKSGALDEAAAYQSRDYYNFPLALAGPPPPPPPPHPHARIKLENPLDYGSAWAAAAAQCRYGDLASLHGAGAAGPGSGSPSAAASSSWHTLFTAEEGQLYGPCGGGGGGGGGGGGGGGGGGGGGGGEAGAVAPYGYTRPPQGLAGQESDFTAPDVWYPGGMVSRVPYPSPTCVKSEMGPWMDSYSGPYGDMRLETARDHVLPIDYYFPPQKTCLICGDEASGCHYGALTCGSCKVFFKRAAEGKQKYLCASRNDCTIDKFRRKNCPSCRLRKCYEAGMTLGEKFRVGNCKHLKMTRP
Assay: Degradation experiment on AR splice variant 7 (AR-V7) in 22RV1 cells
Type: cell-based
Conditions: 24 h, degradation rate 50% relative to vehicle control
Method: Prostate cancer cells 22RV1 were purchased from ATCC, the cell medium was 1640+10% FBS, and the cells were cultured in an incubator at 37° C. under 5% CO2. On day 1, the cells in an exponential phase were collected. With a 1% css-FBS phenol red-free medium, the cell suspension was adjusted to a corresponding concentration and plated into a 6-well plate at 1 mL/well and 300000 cells/well. The next day, a 1% css-FBS phenol-free medium containing the compound to be tested was added, a 1% css-FBS phenol-free medium containing 0.2% DMSO was added to one well as DMSO vehicle control, and the 6-well plate was cultured in an incubator at 37° C. under 5% CO2. After 24 h, the cells were digested with pancreatin and collected into a 1.5 mL centrifuge tube. […] The supernatant protein samples were collected, and protein quantification was performed by a BCA method. AR-V7 was detected using fully automatic protein expression quantitative analysis, which involved diluting the protein to be tested to 2 mg/mL. […] The prepared reagents were successively added to an assay plate according to instructions of the kit and detected on an instrument. Western blot band processing was performed using “Compass for SW”, a fully automatic protein expression quantitative analysis software, in which western blot bands were automatically simulated based on signal values. […]

- DC50: 3.71 µM
SMILES: COc1c(Cl)cc(C(C)(C)c2ccc(OCc3ccnc(N4CCC(CN5CCC(C6CCN(c7ccc(C8CCC(=O)NC8=O)cc7)CC6)CC5)CC4)n3)cc2)cc1C#N (stereo not shown) [Compound 119, 3-chloro-5-(2-(4-((2-(4-((1′-(4-(2,6-dioxopiperidin-3-yl)phenyl)-[4,4′-bipiperidin]-1-yl)methyl)piperidin-1-yl)pyrimidin-4-yl)methoxy)phenyl)propan-2-yl)-2-methoxybenzonitrile]
